In US20250283871A1, “COMPOSITIONS AND METHODS FOR MODULATING THE INTERACTION BETWEEN SS18-SSX FUSION ONCOPROTEIN AND NUCLEOSOMES” (Dana-Farber Cancer Institute, Inc., priority 2020, published 2025):

Columns and labels:
[1] = test system: mammalian mononucleosomes from HEK293T cells; experiment: Protein and peptide pull downs with mammalian mononucleosomes; format: binding, human; settings: mammalian mononucleosomes
Protocol: (§1) The flow through was removed, the immobilized bait was incubated with 1-2 μg of purified mammalian mono-nucleosomes from HEK293T cells, recombinant mono-nucleosomes (EpiCypher, 16-0006), recombinant H2AK119Ub mono-nucleosomes (EpiCypher, 16-0020) or recombinant protein for 3 hours at 4° C., and the beads were washed 3× with EB150 buffer and then eluted in 2×LDS with 200 mM DTT with heating at 95° C. for 5 minutes. The pull downs were then visualized by immunoblot analysis or colloidal blue staining.
Mammalian mononucleosomes were purified from HEK293T cells similar to as previously described (Mashtalir et al. (2014) Mol. Cell 54:392-406). Cells were scraped from plates, washed with cold PBS, and centrifuged at 5,000 rpm for 5 min at 4° C. Pellets were resuspended in hypotonic buffer (EBO: 50 mM Tris HCl, pH 7.5, 1 mM EDTA, 1 mM MgCl2, 0.1% NP40 supplemented with 1 mM DTT, 1 mM PMSF, and protease inhibitor cocktail (Roche, C756U27) and incubated for 5 min on ice. The suspension was centrifuged at 5,000 rpm for 5 min at 4° C., and pellets were resuspended in 5 volumes of EB420 (EBO: 50 mM Tris HCl, pH 7.5, 420 mM NaCl, 1 mM MgCl2, 0.1% NP40 with supplemented with 1 mM DTT and 1 mM PMSF containing protease inhibitor cocktail (Roche, C756U27). Homogenate incubated on rotator for 1 hour at 4° C. The supernatant was then centrifuged at 20,000 rpm (30,000×g) for 1 hour at 4° C. using a SW32Ti rotor. Supernatant was then discarded and chromatin pellet was washed in MNAse buffer (20 mM Tris-HCl pH 7.5, 100 mM KCl, 2 mM MgCl2, 1 mM CaCl2, […] sucrose, 0.1% NP-40, and protease inhibitor cocktail) three times. Following MNase treatment (3 U/mL for 30 min at room temperature, Sigma-Aldrich), the reaction was quenched with 5 mM of EGTA and 5 mM of EDTA. The samples were then centrifuged at 20,000×g for 1 hour at 4° C. to obtain the soluble chromatin fraction. Soluble chromatin fraction was loaded onto 10-30% glycerol gradient (Mashtalir et al. (2014) Mol. Cell 54:392-406) and fractions containing mononucleosomes were isolated and concentrated using centrifugal filter (Amicon, EMD Millipore).

[2] = test system: BAF complex components; experiment: anti-SMARCA4 (BRG1) IP mass spectrometry (Tables 7A-7C); format: cell-based, human; settings: Aska-SS cells -/+ shSSX
Protocol: Peptide abundance normalized to SMARCA4 abundance. […] SMARCC1, SS18, GFP, SMARCB1, and TBP levels are shown. […] T indicates 0-40 min timecourse; n=3 experimental replicates at each time point; error bars represent standard deviation.
Nuclear extracts were quantified by Bradford assay and 150-200 μg of protein was incubated with 2 μg of antibody in Buffer EB300 (50 mM Tris pH 7.5, 0.1% NP-40, 1 mM EDTA, 1 mM MgCl2, […] with protease inhibitor (Roche, C756U27), 1 mM DTT and 1 mM phenylmethylsulfonyl fluoride (PMSF)) overnight at 4° C. Each sample was then incubated with Protein G Dynabeads® (Thermo Scientific) for 2-3 hours. Beads were washed three times with Buffer EB300 followed by elution with 20 μL of elution buffer (NuPage™ LDS buffer (2×) (Life Technologies) containing 100 mM DTT and water).

[3] = test system: recombinant H2AK119Ub mono-nucleosomes; experiment: Pull downs with WT or H2A K119Ub nucleosomes; format: binding
Protocol: as §1

[4] = test system: Barr bodies (inactive X); experiment: Immunofluorescence, Barr body localization; format: cell-based, human; settings: 293T cells, versus DMSO control
Protocol: Immunofluorescent images were obtained as previously described (Daou et al. (2011) Pro. Nat. Acad. Sci. U.S.A 108:2747-2752). Following lentiviral infection and/or drug treatment, cells were prepared by fixation in 3% PFA-PBS and then were permeabilized with PBS 0.1% NP40. Following incubation with primary antibodies, the Anti-rabbit Alexa Fluor® 594 and Anti-mouse Alexa Fluor® 488 (Life Technologies) secondary antibodies were used for visualization. Staining with 4′,6-diamidino-2-phenylindole (DAPI) was used to visualize nuclei. Images were acquired using Zeiss Axio Imager Z2 microscope and images were processed using ImageJ program (NIH).

| Molecule | nucleosome binding in pull-down [1] | Aska (shControl)/Aska (shSS18-SSX) LFQ Intensity (Norm to SMARCA4 Rep 1) [2] | Aska (shControl)/Aska (shSS18-SSX) LFQ Intensity (Norm to SMARCA4 Rep 2) [2] | also measured |
| --- | --- | --- | --- | --- |
| SSX aa166-188: biotinylated 23-residue SSX peptide lacking the W164 residue | failed to do so |  |  |  |
| SSX aa165-188: biotinylated 24-residue SSX peptide lacking the W164 residue | failed to do so |  |  |  |
| BCL7C: BAF complex subunit quantified in the IP MS |  | 1.744 | 1.537 |  |
| mutation of the C-terminal acidic region of SSX to alanines: GST-SSX with acidic C-term DPEEDDE replaced by AAAAAAA (SGPKRGKHAWTHRLRERKQLVIYEEISAAAAAAA) |  |  |  | affinity to H2A K119Ub-decorated nucleosomes, pulldown ([3]; H3 immunoblot): relieved the preference of SSX for H2AK119Ub nucleosomes; SSX binding to nucleosomes ([3]; WT or H2A K119Ub nucleosomes): not altering SSX binding to nucleosomes |
| ARID1B: BAF complex subunit quantified in the IP MS |  | 0.7212 | 0.6498 |  |
| CCCc1cc(C)[nH]c(=O)c1CNC(=O)c1cc(-c2ccc(N3CCN(C(C)C)CC3)nc2)cc2c1cnn2C(C)C [EZH2 inhibitor, reference compound] |  |  |  | SS18-SSX foci localized to Barr bodies after treatment [4]: no change to SS18-SSX foci localized to Barr bodies |
